# According to patent EP4778931A1, “ULK1 INHIBITOR, PREPARATION METHOD THEREFOR AND USE THEREOF” (Dovetree Medicines Unus, Inc., priority 2023, dated 2025):
# Target: T1, ULK1 (Homo sapiens, UniProt O75385)
# T1 construct: purchased Promega V3521
# T1 sequence (O75385 1-1050): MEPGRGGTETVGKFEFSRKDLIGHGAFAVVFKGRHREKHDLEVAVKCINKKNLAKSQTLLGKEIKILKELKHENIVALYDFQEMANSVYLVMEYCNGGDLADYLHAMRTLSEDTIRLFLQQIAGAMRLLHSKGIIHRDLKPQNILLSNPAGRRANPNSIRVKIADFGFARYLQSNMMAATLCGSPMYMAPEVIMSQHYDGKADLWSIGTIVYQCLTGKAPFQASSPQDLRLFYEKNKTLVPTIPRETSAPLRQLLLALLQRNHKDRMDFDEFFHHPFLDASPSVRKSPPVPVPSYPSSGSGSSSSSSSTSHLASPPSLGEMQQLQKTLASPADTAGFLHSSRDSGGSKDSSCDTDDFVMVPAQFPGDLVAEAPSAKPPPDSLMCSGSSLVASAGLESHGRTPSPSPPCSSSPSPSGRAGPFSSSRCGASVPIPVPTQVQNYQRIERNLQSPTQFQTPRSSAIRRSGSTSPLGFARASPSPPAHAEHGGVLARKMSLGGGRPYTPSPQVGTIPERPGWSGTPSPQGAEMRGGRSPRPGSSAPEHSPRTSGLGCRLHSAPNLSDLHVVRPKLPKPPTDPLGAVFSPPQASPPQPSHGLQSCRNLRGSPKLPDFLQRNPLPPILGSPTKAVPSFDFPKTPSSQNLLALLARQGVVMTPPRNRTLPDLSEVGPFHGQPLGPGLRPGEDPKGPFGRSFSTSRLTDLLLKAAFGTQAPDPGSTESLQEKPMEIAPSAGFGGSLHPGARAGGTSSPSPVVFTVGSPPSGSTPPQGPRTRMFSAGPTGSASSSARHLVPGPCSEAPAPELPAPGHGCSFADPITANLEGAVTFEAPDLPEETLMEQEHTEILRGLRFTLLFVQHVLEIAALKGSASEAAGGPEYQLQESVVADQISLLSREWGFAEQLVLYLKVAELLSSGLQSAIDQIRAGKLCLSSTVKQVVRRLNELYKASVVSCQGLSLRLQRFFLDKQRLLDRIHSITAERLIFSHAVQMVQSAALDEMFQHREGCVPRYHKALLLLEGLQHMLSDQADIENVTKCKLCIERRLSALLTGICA
# Experiment: Inhibition of ULK1 protein activity (phosphorylation function), ADP-Glo method
# Type: biochemical
# Conditions: ADP-Glo; ULK1 (Promega), ATP and MBP substrate, 60 min at room temperature; 10 concentrations, maximum 10 µM; read-out: ULK1 IC50
# Method: In this experiment, the inhibitory effect of a compound on the phosphorylation function of ULK1 was detected by ADP-Glo method. The inhibitory effect of the compound of the present disclosure on the ULK1 target was evaluated based on IC50.
# Compound formulation: Using an ECHO (Beckman, ECHO650), the compound was serially diluted 3-fold in DMSO in a 384-well plate (PE, 6007290). A total of 10 concentration points were set, with the maximum concentration of the compound being 10 µM, and 50 nL per well. Positive control wells and negative control wells were added with 50 nL DMSO, respectively.
# Reaction process: A 32 nM of ULK1 (Promega, V3521) solution was formulated, and 2.5 µL/well was transferred to the compound test wells and the negative control wells (NC). 2.5 µL/well of 1× Assay buffer was added to the positive control wells (PC). A mixed solution of 100 µM of ATP and 1.86 µM of MBP was formulated, and 2.5 µL/well was transferred to the reaction plate. After centrifugation, the reaction was initiated and incubated at room temperature for 60 min. After the reaction was completed, 5 µL/well of ADP-Glo Reagent (Promega, V9102) was added to the reaction plate. After centrifugation, the reaction was incubated at room temperature for 40 minutes. Finally, 10 µL/well of Kinase Detection Buffer was added, followed by centrifugation and incubation at room temperature for 30 min. The chemiluminescence value was read using Envision (PE, Envision2105).
# Assay buffer: a reaction buffer; and Kinase Detection buffer: a detection buffer, both were taken from the ADP-Glodetection kit, purchased from Promega, model V9102.
# The inhibition ratio of a compound on ULK1 activity was calculated using the following formula: [formula]
# The dose-effect curve was fitted using the log(inhibitor) vs. response -Variable slope of the analysis software GraphPad Prism 8, thereby affording the IC50 value of each compound for enzyme activity.
row,SMILES,IC50 [µM]
1,CN1CCN2c3ccc(Nc4ncc(C(F)(F)F)c(OCCCn5nccc5Cl)n4)cc3COCC2C1 (centres unmarked) [Compound 10],< 0.1
2,CN1CCN2c3ccc(Nc4ncc(C(F)(F)F)c(O[C@H]5CC[C@@H](n6cccn6)CC5)n4)cc3COCC2C1 (some centres unmarked) [Compound 7],< 0.1
3,CN1CCN2c3ccc(Nc4ncc(C(F)(F)F)c(OCCCN5CCCOC5=O)n4)cc3COCC2C1 (centres unmarked) [Compound 16],< 0.1
4,CN1CCC2(CCN(c3nc(Nc4ccc5c(c4)COCC4CN(C6COC6)CCN54)ncc3C(F)(F)F)C2)C1 (centres unmarked) [Compound 19],< 0.1
5,CN1CCC2(CC1)CCN(c1nc(Nc3ccc4c(c3)COCC3CN(C)CCN43)ncc1C(F)(F)F)CC2 (centres unmarked) [Compound 13],0.1 to 1
6,CN1CCN2c3ccc(Nc4ncc(C(F)(F)F)c(OCCCN5CCCCC5=O)n4)cc3N(C)C(=O)C2C1 (centres unmarked) [Compound 14],< 0.1
7,CN1CCN2c3ccc(Nc4ncc(C(F)(F)F)c(OCCCN5CCCCC5=O)n4)cc3OCCC2C1 (centres unmarked) [Compound 15],< 0.1
8,CC(=O)N1CCN2c3ccc(Nc4ncc(C(F)(F)F)c(N5CCC6(CCN(C)C6)C5)n4)cc3COCC2C1 (centres unmarked) [Compound 18],< 0.1
